Measured values taken from patent publication US20110105436A1, “HETEROARYL COMPOUNDS, COMPOSITIONS, AND METHODS OF USE IN CANCER TREATMENT” (AUCKLAND UNISERVICES LIMITED, priority 2008, published 2011).

Assays:
Format in all cases: cell-based
RCC4/VHL cells = assay: XTT assay, RCC4/VHL versus RCC4 cells (selectivity ratio)
Method in brief: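 RCC4 cells with or without VHL (5000/well) exposed to serially diluted compounds for four days. Viability read as XTT metabolism (0.3 mg/ml XTT plus PMS, 1-2 h, 37 °C) at 450 nm. Ratio is IC50 in RCC4/VHL over IC50 in RCC4.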

RCC4 and RCC4/VHL cells = assay: Apoptosis by Hoechst, Annexin V staining and caspase-3; conditions: in vitro, VHL-deficient cells, 1.25 μM; confirmed by caspase-3 in tumor sections
Procedure: B. XTT assay in RCC4 and RCC4/VHL in presence of STF-62247 (0-40 μM). Each point of the cell survival is calculated by the average of three different experiments in duplicate as the percent of treated on untreated plate. The error bars are represented as the standard error of the mean (SEM) C. qRT-PCR for Glutl, VEGF, PDF and PGK in RCC4 cells with or without HIF-1a, HIF-2a shRNA and in RCC4/VHL. D. Hoescht staining in RCC4 and RCC4/VHL cells with 1.25 μM of STF-62247 for 2 days. Camptothecin was used as positive control E. FACS analysis for apoptosis after an annexin V-FITC staining in presence or absence of propidium iodine (PI) in cells after a treatment in same conditions than in C. F. Immunoblot for active caspase-3 in RCC4 and RCC4/VHL following treatment with 1.25 μM of STF-62247 for 24 hours. Staurosporine was used as positive control (0.2 μM for 24 hours). G,H. Immunostaining of caspase-3 and Ki67 respectively in SN12C and SN12C+shVHL tumor samples untreated or treated with 30 μM of STF-62247.1. Immunoblot for p53 and SerlS phospho-p53 in RCC4 and RCC4/VHL cells after a treatment with 1.25 μM of STF-62247 or doxorubicin for 24 hours.

[1] = system: RCC4, RCC4/VHL, SN12C and SN12C-VHL shRNA cells; assay: Vacuole formation by light and time-lapse microscopy
Procedure: A. Phase contrast pictures of VHL-deficient RCC4 and SN12C-VHL shRNA cells and VHL-positive cells RCC4 and SN12C after 20 hrs of 1.25 μM STF-62247. B. Immunostaining for LC3 following STF-62247 treatment at 1.25 μM for 20 hrs with or without 2 mM of 3-MA in RCC4 with and without VHL cells. After treatment, cells were fixed, permeabilized and processed for the detection of punctuate staining by indirect immunofluorescence. C. Autophagic vacuoles stained with monodansylcadaverine (MDC). After STF-62247 treatment in the same conditions, MDC was added for the last 10 minutes. Cells were fixed, washed with PBS and observed directly under microscope. D. Western blot for LC3 in RCC4, RCC4/VHL, SN12C, and SN12C-VHL shRNA cells after STF-62247 treatment with or without 3-MA. Nutrient starvation (EBSS) is used as positive control. […] Viability is measured by trypan blue exclusion assay and is represented by the average of three different experiments in duplicate as the percent of treated on untreated cells. […]
A. RCC4 and RCC4/VHL were treated with 1.25 μM of each 19 analogs for 20 hours and the presence of vacuoles was examined under light microscopy. […] Acidic vesicle organelles (AVO) measured by FACS analysis in cells treated with 1.25 μM of STF-62247 or with compounds 21, 15, 25, 47, and 53 and stained with acridine orange.

Question: Which results are given for `Cc1cccc(Nc2nc(-c3ccncc3)cs2)c1` [Compound 5, N-(3-Methylphenyl)-4-(4-pyridinyl)-1,3-thiazol-2-amine]?
Answer: Ratio (RCC4/VHL cells; Table 1, selectivity ratio, IC50 in RCC4/VHL cells/IC50 in RCC4 cells): 19; IC50 ratio (wild-type VHL/VHL-deficient cells) (RCC4/VHL cells; structure-activity text on Tables 1 and 2): high IC50 ratio; induction of apoptosis (RCC4 and RCC4/VHL cells): did not induce apoptosis; vacuole formation ([1]; 1.25 μM, 20 hrs, FIG. 2A): accumulated intracytoplasmic vacuoles characteristic of cells undergoing autophagy; time of appearance of vacuoles after addition ([1]; time-lapse for 48 hours, RCC cells with and without VHL): 3 h
